The conditions of data set [1]: solid form, storage over a long period of time; prior-art forms (EP 126587A, EP 256377, US 4,888,344); cited from earlier work.
The nature of data set [2]: stability during storage of the solid form. In kind it is physicochemical. The following applies: new crystalline form B, compared with non-crystalline form, no data given.

Read-outs that look alike come from different tables or passages of the source.

With `C[C@@H](O)[C@H]1C(=O)N2C(C(=O)O)=C(S[C@@H]3CN[C@H](C(=O)N(C)C)C3)[C@H](C)[C@H]12` [Compound A in such non-crystalline form, (4R,5S,6S)-3-[[(3S,5S)-5-[(dimethylamino)carbonyl]-3-pyrrolidinyl]thio]-6-[(1R)-1-hydroxyethyl]-4-methyl-7-oxo-1-azabicyclo[3.2.0]hept-2-ene-2-carboxylic acid], the stability during storage result in data set [1] was “not sufficiently stable”.
In the case of `C[C@@H](O)[C@H]1C(=O)N2C(C(=O)O)=C(S[C@@H]3CN[C@H](C(=O)N(C)C)C3)[C@H](C)[C@H]12` [Compound A in such crystalline form A, (4R,5S,6S)-3-[[(3S,5S)-5-[(dimethylamino)carbonyl]-3-pyrrolidinyl]thio]-6-[(1R)-1-hydroxyethyl]-4-methyl-7-oxo-1-azabicyclo[3.2.0]hept-2-ene-2-carboxylic acid], the stability during storage entry in data set [1] is “much more stable than in a non-crystalline form”.
For `C[C@@H](O)[C@H]1C(=O)N2C(C(=O)O)=C(S[C@@H]3CN[C@H](C(=O)N(C)C)C3)[C@H](C)[C@H]12` [Compound A in a new crystalline form B, (4R,5S,6S)-3-[[(3S,5S)-5-[(dimethylamino)carbonyl]-3-pyrrolidinyl]thio]-6-[(1R)-1-hydroxyethyl]-4-methyl-7-oxo-1-azabicyclo[3.2.0]hept-2-ene-2-carboxylic acid], the stability during storage entry in data set [2] is given as “stable for storage”; in data set [2] (listed as crystalline carbapenem compound of the present invention) it was “much more stable than carbapenem compound in a non-crystalline form”.
